How the values were obtained:
Trypanosoma cruzi [1] = experiment: GSK_TCAKS: pIC50 Trypanosoma cruzi viability assay using beta-GAL activity. This assay was run at single shot at 5uM compound concentration per well. The biological reagents consisted of NIH-3T3 host cells and trypomastigotes parasitic cells; both cell types were set to a 3.3 * 10^5 cells/mL dilution in assay DMEM by means of a CASY cell counter device using a 60um capillary. 6 uL of the mixture were dispensed per well (about 1 * 10^3 host-cells and 1 * 10^3 parasites) with a Multidrop Combi dispenser. […] In all wells, the percentage of DMSO never exceeded 0.5%. Plates incubated for four days at 37C, 5% CO2. The substrate used for the assay fluorescence intensity (FLINT) readout was resorufin-beta-D-galactopiranoside (Sigma-Aldrich) at 5uM per well. It was diluted in PBS supplemented with the soft detergent Igepal (Fluka).; assay type: functional, organism-based, Mus musculus; settings: Tulahuen, NIH3T3
Trypanosoma cruzi [2] = experiment: (§1) GSK_TCAKS: pIC50 Trypanosoma cruzi Imaging: Infected Cells. […] Cells were then washed once with PBS before infection. T. cruzi trypomastigotes, collected at days 5 to 8 after infection from LLC-MK2 parasite infected cultures, were allowed to swim out for 4h at 37C from a centrifuged pellet (2,500 rpm/10 min/room temperature). Trypomastigotes were then collected and counted in a CASY Cell Counter. Trypomastigotes, in supplemented DMEM, were added to H9c2 cultures in a multiplicity of infection of 1 and incubated for 18 h. Cells were washed once with PBS before incubation of the infected H9c2 monolayer with trypsin (Life-Technologies) to detach cells from the flask. Cells were counted in a CASY Cell Counter using a 150 um capillary and their density set at 5 * 10^4 cells per mL in supplemented assay DMEM. Infected H9c2 were dispensed into 384-well poly-lysine coated assay plates at 50uL per well using a Multidrop Combi dispenser. After seeding them, the plates were incubated at 37C, 5% CO2 for 72h. Cultures were then fixed and stained by addition of 50 uL of a solution containing 8% formaldehyde and 4 uM DRAQ5 DNA dye (BioStatus, UK) per well. […] Five images were collected per well for reliable statistical analysis. Automated image analysis was performed with a script developed on Acapella High Content Imaging and Analysis Software (PerkinElmer). Output: percentage of infected cells per well as a second infection marker.; assay type: functional, organism-based, Rattus norvegicus; settings: H9c2, 4 h
Trypanosoma cruzi [3] = experiment: GSK_TCAKS: pIC50 Trypanosoma cruzi Imaging: Amastigotes/Cell. […] Cells were then washed once with PBS before infection. T. cruzi trypomastigotes, collected at days 5 to 8 after infection from LLC-MK2 parasite infected cultures, were allowed to swim out for 4h at 37C from a centrifuged pellet (2,500 rpm/10 min/room temperature). Trypomastigotes were then collected and counted in a CASY Cell Counter. Trypomastigotes, in supplemented DMEM, were added to H9c2 cultures in a multiplicity of infection of 1 and incubated for 18 h. Cells were washed once with PBS before incubation of the infected H9c2 monolayer with trypsin (Life-Technologies) to detach cells from the flask. Cells were counted in a CASY Cell Counter using a 150 um capillary and their density set at 5 * 10^4 cells per mL in supplemented assay DMEM. Infected H9c2 were dispensed into 384-well poly-lysine coated assay plates at 50uL per well using a Multidrop Combi dispenser. After seeding them, the plates were incubated at 37C, 5% CO2 for 72h. Cultures were then fixed and stained by addition of 50 uL of a solution containing 8% formaldehyde and 4 uM DRAQ5 DNA dye (BioStatus, UK) per well. […] Five images were collected per well for reliable statistical analysis. Automated image analysis was performed with a script developed on Acapella High Content Imaging and Analysis Software (PerkinElmer). Output: number of amastigotes per cell as infection level measurement.; assay type: functional, organism-based, Rattus norvegicus; settings: H9c2, 4 h
Trypanosoma cruzi [4] = experiment: as §1, with “H2C9” for “Trypanosoma cruzi”, “H9c2 Host Cardiomyocytes.” for “Infected Cells.”, “Number” for “percentage”, “H9c2 Host Cardiomyocytes nuclei to determine drug-related cytotoxicity.” for “infected cells per well as a second infection marker.”; assay type: functional, organism-based, Rattus norvegicus; settings: H9c2, 4 h
Leishmania donovani [5] = experiment: GSK_TCAKS: pIC50 Leishmania donovani viability assay using fluorescence intensity. Assay plates (1536-well) were prepared by adding 30nL per well of compound. For single shot assay, the final compound concentration was 5uM. […] Briefly, eGFP LdBOB axenic amastigotes were harvested, fixed and counted in a CASY cell counter (Roche-Applied Science). A final concentration of 1.5 * 10^5 cells per well were prepared in amastigote media containing 500 U/mL penicillin/streptomycin (Invitrogen) and 6uL was dispensed to each experimental well using a Multidrop Combi dispenser (Thermo Scientific). 6uL of assay media was dispensed to control columns used as reference for 100% compound response. Following incubation for 72 h at 37C, 5% CO2, 2 uL of resazurin was added to each well at a final concentration of 0.5 mM in phosphate buffered saline (PBS) with IGEPAL (Sigma-Aldrich), 0.05% (v/v).; assay type: functional, organism-based
Leishmania donovani [6] = experiment: (§2) GSK_TCAKS: pIC50 Leishmania donovani Imaging: Infected Macrophages. Assay plates (384-well) were prepared by adding 250nL of compound to each well. For single shot assay, the final compound concentration was 5 uM. […] Automated image analysis was performed with a script developed on Acapella High Content Imaging and Analysis Software (PerkinElmer). Output: Percent of infected macrophage cells were reported for each well.; assay type: functional, organism-based, Homo sapiens; settings: THP-1
Leishmania donovani [7] = experiment: as §2, with “Amastigotes/Macrophages.” for “Infected Macrophages.”, “Average number” for “Percent”, “amastigotes per” for “infected”, “cell” for “cells”; assay type: functional, organism-based, Homo sapiens; settings: THP-1
Leishmania donovani [8] = experiment: as §2, with “THP-1 Host” for “Infected”, “THP-1 cell count” for “Percent of infected macrophage cells”; assay type: functional, organism-based, Homo sapiens
[9] = tested on: Trypanosoma brucei brucei; experiment: GSK_TCAKS: pIC50 Trypanosoma brucei viability assay using fluorescence intensity. Assay plates (1536-well) were prepared by dispensing 25nL of compound solution per well using an Echo acoustic dispenser (Labcyte).; assay type: functional, organism-based; settings: Lister 427, 2 h
[10] = tested on: Trypanosoma brucei brucei; experiment: GSK_TCAKS: pIC50 Trypanosoma brucei viability assay using luminiscence. Assay plates (1536-well) were prepared. T. brucei cultures were harvested and counted in a CASY cell counter. A parasite suspension was prepared at a final concentration of 5 * 10^4 cells/mL in complete HMI9 medium and 6uL was dispensed to all wells containing compounds using a Multidrop Combi dispenser. 6uL of HMI9 media with 0.4% DMSO were dispensed to control columns. Plates were incubated for 24 h at 37C, 5% CO2 then tempered for 10 min at room temperature. ATP content was quantified by adding 4 uL of CellTiter-Glo Reagent (Promega) according to the manufacturer's instructions. Luminescence was measured using a ViewLux.; assay type: functional, organism-based; settings: Lister 427, CASY
[11] = GSK_TCAKS: pIC50 HepG2 human cell line viability assay using luminiscence. […] Seeding density was checked to ensure that new mono-layers were not more than 50% confluent at the time of harvesting. Cell suspension was added to 500 mL of the same medium at a final density of 1.2 * 10^5 cells/mL. This cell suspension was dispensed (25 uL, 3000 cells per well) into 384-well clear-bottom plates using a Multidrop Combi dispenser. Prior to addition of the cell suspension, the screening compounds (250 nL) were pre-dispensed into the plates with an Echo liquid handler. Plates were incubated for 48 h at 37C, 5% CO2. After incubation, plates equilibrated at room temperature for 30 min before proceeding to develop the luminescent signal. The signal developer, CellTiter-Glo Reagent, was allowed to equilibrate at room temperature for 30 min and added to the plates (25uL per well) using a Multidrop Combi dispenser. Plates were left for 10 min at room temperature for stabilization and then read using a ViewLux.; assay type: toxicity, cell-based
NIH3T3 = experiment: GSK_TCAKS: pIC50 NIH 3T3 cell line viability assay using luminiscence. Tissue culture surface treated assay plates (1536-well) were used. […] The 100% cells survival control was determined exposing the host-cells to a 0.5% DMSO concentration, whereas the 100% toxicity control was achieved by seeding the cells in presence of Amphotericin B at 50uM. Plates were incubated for four days at 37C, 5% CO2. The assay readout was developed by addition of 5uL of CellTiter-Glo Reagent following the manufacturer's instructions. Luminiscence was measured using a ViewLux.; assay type: functional, cell-based; settings: Mus musculus, NIH3T3, 96 h
[12] = target: Sterol 14-alpha demethylase (Trypanosoma cruzi (strain CL Brener), UniProt Q7Z1V1); experiment: GSK_TCAKS: pIC50 CYP51 from Trypanosoma cruzi.; assay type: functional
Chain of Sterol 14-alpha demethylase (Q7Z1V1 whole entry): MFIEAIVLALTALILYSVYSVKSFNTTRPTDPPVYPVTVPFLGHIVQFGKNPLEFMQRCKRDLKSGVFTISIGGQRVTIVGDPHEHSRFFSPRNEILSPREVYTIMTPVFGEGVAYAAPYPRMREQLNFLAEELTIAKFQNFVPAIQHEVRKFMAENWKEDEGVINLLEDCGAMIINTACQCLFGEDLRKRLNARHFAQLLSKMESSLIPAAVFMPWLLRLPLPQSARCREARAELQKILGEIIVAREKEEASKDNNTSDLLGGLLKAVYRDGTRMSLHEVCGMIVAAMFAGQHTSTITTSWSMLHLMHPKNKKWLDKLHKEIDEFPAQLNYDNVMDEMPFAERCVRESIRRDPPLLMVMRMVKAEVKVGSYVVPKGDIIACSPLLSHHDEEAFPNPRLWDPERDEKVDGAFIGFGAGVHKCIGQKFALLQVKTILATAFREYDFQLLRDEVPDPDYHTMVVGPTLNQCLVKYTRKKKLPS

SMILES	IC50 (Trypanosoma cruzi [1]) [µM]	IC50 (Trypanosoma cruzi [2]) [µM]	IC50 (Trypanosoma cruzi [3]) [µM]	IC50 (Trypanosoma cruzi [4]) [µM]	IC50 (Leishmania donovani [5]) [µM]	IC50 (Leishmania donovani [6]) [µM]	IC50 (Leishmania donovani [7]) [µM]	IC50 (Leishmania donovani [8]) [µM]	IC50 [9] [µM]	IC50 [10] [µM]	IC50 at 48 h [11] [µM]	IC50 (NIH3T3) [µM]	IC50 [12] [µM]
COc1cccc(CCNC(=O)C(c2cn[nH]c2)N2CCN(c3ccc(Cl)cc3)CC2)c1 (stereo not drawn)	0.02	0.02	0.0158	39.8	12.6	20	10	25.1	20	31.6	50.1	31.6	0.0631
Cc1cc(N(C)C)nc2ccc(Cc3cnc(N)nc3N)cc12	1.26	6.31	3.16	> 50.1	> 50.1	31.6	39.8	39.8	5.01	5.01	31.6	10	> 100
CC1(C)CCC(=Cc2ccc(Cl)cc2)CC1(O)Cn1ccnc1 (stereo not drawn)	0.00631	0.00794	0.00501	31.6	2.51	7.94	2	12.6	10	25.1	50.1	15.8	0.0501
N#Cc1cccc(CN2CCC(c3nc(-c4ccc(C(F)(F)F)nc4)no3)CC2)c1	2	2	2.51	> 50.1	12.6	> 50.1	> 50.1	> 50.1	> 39.8	> 39.8	> 100	> 50.1	> 100
CNc1cc(C)nc(C2CN(C(=O)c3n[nH]c4ccccc34)CCO2)c1 (stereo not drawn)	1.26	2.51	0.794	> 50.1	> 50.1	> 50.1	> 50.1	> 50.1	20	> 39.8	> 100	> 50.1	> 100
COc1cc(C(C)C)c(S(C)(=O)=O)cc1C(=O)N1CCN(c2ccccc2Cl)CC1	1.58	2.51	2	20	5.01	15.8	12.6	15.8	25.1	31.6	> 100	> 50.1	> 100
O=C(Nc1ncc([N+](=O)[O-])s1)C1CC1	0.398	1	0.398	> 50.1	39.8	> 50.1	> 50.1	> 50.1	7.94	39.8	> 100	31.6	> 100
CN(Cc1cccnc1)Cc1ccc(N2CCN(C(=O)C3(c4ccc(Cl)cc4)CC3)CC2)nc1	0.501	1.58	1.26	> 50.1	31.6	> 50.1	> 50.1	10	31.6	25.1	> 100	7.94	0.158
COc1ccc(S(=O)(=O)NCc2ccc(-c3ccc(CN(C)CCO)cc3)cc2)cc1	0.0398	2.51	1.26	> 50.1	> 50.1	15.8	20	20	3.16	3.16	50.1	15.8	15.8
O=C(NC(c1ccc(Cl)cc1)c1cnccn1)C1CCN(C(=O)Nc2cccc(C(F)(F)F)c2)CC1 (stereo not drawn)	0.631	0.631	0.501	> 50.1	20	> 50.1	> 50.1	39.8	12.6	6.31	> 100	39.8	0.126
Cc1ccc2nc(N(Cc3cccnc3)C(=O)CCc3ccccc3)sc2c1	0.0398	0.0398	0.0316	> 50.1	25.1	> 50.1	> 50.1	> 50.1	12.6	20	> 100	15.8	0.0631
Cc1cccc(N2CCCN(Cc3c[nH]c4ccccc34)CC2)n1	0.316	0.398	0.316	2.51	> 50.1	10	10	10	12.6	12.6	12.6	25.1	> 100
COc1ccc(CN(C)Cc2ccncc2)cc1-c1ccc(S(=O)(=O)NC2CCC2)s1	0.501	0.631	0.501	10	39.8	> 50.1	15.8	20	> 39.8	20	> 100	25.1	0.0794
Cc1nc2[nH]c(C)c(Cc3ccc(C(C)C)cc3)c(=O)n2n1	0.501	0.794	0.251	> 50.1	1.26	31.6	15.8	> 50.1	> 39.8	> 39.8	> 100	> 50.1	> 100
CN(Cc1nc2ccccc2s1)C(=O)C=Cc1cc2ccccc2o1	0.631	0.794	1	> 50.1	50.1	> 50.1	15.8	> 50.1	31.6	> 39.8	> 100	31.6	0.158
Cc1cc2cncn2c(C2CCCCN2C(=O)c2cccs2)n1 (stereo not drawn)	0.0251	0.0631	0.0631	> 50.1	0.398	> 50.1	> 50.1	> 50.1	> 39.8	> 39.8	> 100	> 50.1	0.1
